13 molecules from ChEMBL document CHEMBL1132849, “Amidinohydrazones as guanidine bioisosteres: application to a new class of potent, selective and orally bioavailable, non-amide-based small-molecule thrombin inhibitors” (Bioorg Med Chem Lett, 2000) can be followed below.

Several values for one entry are separate records, joined by “and”; a condition that tells them apart may be missing. Equal entries are not always repeated. Bounds are passed on as bounds.

Data set [1] has as its target Prothrombin (Homo sapiens, UniProt P00734). The experiment in a line: Inhibitory constant against human alpha thrombin.
Data set [2] is described as follows: Oral bioavailability in dog. The class given is ADME, organism-based, Canis lupus familiaris. Particulars: in vivo.
A short description of data set [3]: pKa was evaluated. The format is physicochemical.
The nature of data set [4]: The compound was tested for time taken to decrease, half of its initial concentration in dog plasma. The format is ADME, organism-based, Canis lupus familiaris.
The nature of data set [5]: The compound was tested for clearance in dog plasma. The format is ADME, organism-based, Canis lupus familiaris.
Data set [6] is described as follows: The compound was tested for maximum concentration ( Cmax ) in dog plasma. The format is ADME, organism-based, Canis lupus familiaris.
The species named for data set [7] is Canis familiaris. Briefly: Vss in dog. The class given is ADME, organism-based, Canis lupus familiaris. Particulars: in vivo.
Data set [8] in a line: Dose at which bioavailability of intravenously administered compound was tested in rabbit. The format is ADME, organism-based, Oryctolagus cuniculus. Particulars: in vivo, iv.
Data set [9] can be described thus: Dose at which bioavailability of perorally administered compound was tested in rabbit. The class given is ADME, organism-based, Oryctolagus cuniculus. Particulars: in vivo, po.
Data set [10] is described as follows: The compound was tested for its bioavailability in rabbit (by oral dosage). The format is ADME, organism-based, Oryctolagus cuniculus. Particulars: in vivo.
The species named for data set [11] is Canis familiaris. The experiment in a line: The compound was tested for clotting time thrombin(TCT). The format is functional, Canis lupus familiaris.
For data set [12], the system named is Canis familiaris. The experiment in a line: Time at which maximal (1.6 fold increase) prolong clotting time was observed after peroral administration of compound (30 mg/kg) in dog. The format is functional, Canis lupus familiaris.
Data set [13] relates to Oryctolagus cuniculus. The experiment in a line: Prolongation of thrombin clotting time (to 1.9x over control), 60 min after peroral administration (30 mg/kg). The class given is functional.
In data set [14] the test system is Oryctolagus cuniculus. The experiment in a line: Prolongation of thrombin clotting time (to 1.9x over control), after peroral administration (30 mg/kg). The format is functional.
A short description of data set [15]: Percent oral bioavailability of intravenously administered compound (6 mg/kg) was tested in dog. The class given is ADME, organism-based, Canis lupus familiaris. Particulars: in vivo, intravenous, read-out: Bioavailabiility.
Data set [16] in a line: Partition coefficient ( LogP) of the compound. The following applies: octanol/water. The format is physicochemical.
Data set [17] is filed under the species Canis familiaris. Briefly: Vss was determined. The class given is ADME, organism-based, Canis lupus familiaris. The following applies: dog, in vivo.
The subject of data set [18] is Canis familiaris. Briefly: Time at which maximal (4 fold increase) prolong clotting time was observed after peroral administration of compound (30 mg/kg). The format is functional, Canis lupus familiaris.
For data set [19], the system named is Canis familiaris. Briefly: Anticoagulation (1.2 fold increase) after peroral administration of compound (30 mg/kg). The format is functional, Canis lupus familiaris.
Data set [20] concerns Canis familiaris. Briefly: Anticoagulation (1.6 fold increase) after peroral administration of compound (30 mg/kg). The class given is functional, Canis lupus familiaris.
Data set [21] in a line: Percent oral bioavailability of perorally administered compound (30 mg/kg) was tested. The class given is ADME, organism-based. Particulars: in vivo, read-out: Bioavailabiility.

In data set [1], `Cc1cc(OCC/C=N/N=C(N)N)cc(OS(=O)(=O)c2cccc(Cl)c2Cl)c1` came in with an inhibitory constant (Ki) of 9.4 nM.
Consider `Cc1cc(OCC/C=N/N=C(N)N)cc(OS(=O)(=O)c2ccccc2S(C)(=O)=O)c1`, for which, in data set [1], the inhibition constant Ki amounted to 20 nM.
Still for that read-out and setting: the same measure for `Cc1cc(OCC/C=N/N=C(N)N)cc(OS(=O)(=O)c2cccnc2)c1`: 36 nM.
`Cc1cc(OCC/C=N/N=C(N)N)cc(OCc2ccccc2C(F)(F)F)c1`: in data set [1], the Ki stood at 420 nM. Compared with the last molecule, the Ki is about 12-fold higher.
Same read-out and setting: the same measure for `COc1ccccc1S(=O)(=O)Oc1cc(C)cc(OCC/C=N/N=C(N)N)c1`: 11 nM; for `Cc1cc(OCC/C=N/N=C(N)N)cc(OS(=O)(=O)c2cccc(C)c2)c1`: 6 nM.
On to `Cc1cc(OCC/C=N/N=C(N)N)cc(OS(=O)(=O)c2ccccc2Cl)c1`, for which the bioavailability in data set [2] came out at 23%; in data set [10], 60%; in data set [15], 23%. In data set [3], the pKa turned out to be 8.71. The half-life in data set [4] was 21 h. In data set [5], this molecule returned a clearance of 39 mL/min/kg. For the same molecule, the Cmax in data set [6] came out at 1800 nM. The Vss in data set [7] is on record as 3.5 k. In addition, the Dose came to 6 mg/kg in data set [8] and 30 mg/kg in data set [9]. Moreover, the TCT is 34 s and 21 s in data set [11]; 50 s in data set [13]; 26 s in [14]. In data set [12], this molecule displayed a Time of 2 h. Also, the logP in data set [16] is 2.34.
Take `Cc1cc(OCC2(/C=N/N=C(N)N)CC2)cc(OS(=O)(=O)c2ccccc2C#N)c1`: in data set [1], the Ki turned out to be 40 nM.
As for `Cc1cc(OCC/C=N/N=C(N)N)cc(OS(=O)(=O)c2ccccc2C#N)c1`, the bioavailability in data set [2] and in [21] was 21% each time. The pKa in [3] turned out to be 8.84. The molecule further showed a half-life in data set [4] of 19 h. The molecule further came in with a clearance in data set [5] of 79 mL/min/kg. The molecule also returned a Cmax in data set [6] of 900 nM. The Vss in data set [17] came to 23 k. The results for the Time in data set [18], in data set [19] and in [20] were 1 h, 24 h and 8 h, respectively. The molecule also gave a log partition coefficient (logP) in [16] of 2.11.
The molecule `Cc1cc(OCC/C=N/N=C(N)N)cc(OS(=O)(=O)c2cccc3ccccc23)c1` gave a Ki in [1] of 44 nM.
Regarding `COc1cc(CCC/C=N/N=C(N)N)cc(OS(=O)(=O)c2ccccc2Cl)c1`, the Ki in [1] was 990 nM.
Regarding `COc1ccccc1S(=O)(=O)Oc1cc(C)cc(OC/C=N/N=C(N)N)c1`, the Ki in data set [1] was > 1000 nM.
Still for that read-out and setting: in the case of `Cc1cc(OCC/C=N/N=C(N)N)cc(OS(=O)(=O)c2ccccc2OC(F)(F)F)c1` it was 11 nM.

What is called Ki is a dissociation constant, usually derived from enzyme kinetics or from competition with a known ligand. Low values mean tighter binding, high ones weaker binding. A word on the pKa: it is the negative logarithm of the acid dissociation constant. Read a low pKa as a group that gives up its proton readily. Broadly, the half-life is how long it takes for the measured level to halve. Low values mean fast loss, high ones slow loss. Usually clearance stands for a measure of how efficiently the substance is removed, as volume per time. One may read the Cmax as the highest concentration seen after dosing. The logP is a log measure of how a compound divides between an organic and an aqueous phase. A higher logP goes with a more lipophilic compound.
